Results: patent US9724358B2, “Minocycline compounds and methods of use thereof” (Paratek Pharmaceuticals, Inc., priority 2008, dated 2017)
Marks after values point to notes of the source that are not given here.

Tests used:
[1] = tested on: Viridans Strep; assay: Phase 2 CSSSI study, clinical outcome by organism: Viridans Strep; assay type: in vivo, Viridans Streptococci; settings: ME population
Protocol: (§1) A randomized (1:1), controlled, evaluator-blinded Phase 2 study comparing 9-[(2,2-dimethyl-propyl amino)-methyl-minocycline (compound 1) and linezolid (Zyvox™) for the treatment of complicated skin and skin structure infections (CSSSI) was conducted. Patients with CSSSI who required initial intravenous (IV) therapy and met inclusion and exclusion criteria were enrolled at 11 centers in the US and were randomized to receive either compound 1 (100 mg Q24 h IV with 200 mg Q24 h oral step-down) or linezolid (600 mg Q12 h IV with 600 mg Q12 h oral step-down).
(§2) An infecting pathogen was defined as an isolate derived from the last positive culture taken from the site of infection under study prior to and including day 1.

[2] = Phase 2 CSSSI study, subject disposition (discontinuations); assay type: in vivo, human; settings: ITT population
Protocol: as §1
All subjects had four structured evaluations: at Enrollment (Baseline); at End of IV Treatment; at End of Treatment; and at 10 to 17 days after last dose of treatment (test of cure (TOC) evaluation). In addition, the blinded investigator saw each subject daily while they were on IV therapy and at least every 3 days while receiving oral treatment to determine whether to continue current treatment, switch from IV to oral therapy, or discontinue treatment.

[3] = tested on: infecting pathogen; assay: Phase 2 CSSSI study, microbiology outcome; assay type: in vivo, human; settings: ME population; for Presumed Persistence (% of subjects) / Presumed Persistence (number of subjects): clinical failure; for Presumed Persistence (% of subjects) / Presumed Persistence (number of subjects) / Presumed Eradication (% of subjects) / Presumed Eradication (number of subjects): no pathogen at TOC; for Persistence (% of subjects) / Persistence (number of subjects) / Presumed Eradication (% of subjects) / Presumed Eradication (number of subjects): clinical success; for Persistence (% of subjects) / Persistence (number of subjects): enrollment pathogen isolated at TOC
Protocol: as §2
A persisting pathogen at the site of infection under study was defined as an isolate that was the same genus and species as an infecting pathogen; and was cultured at the Test-of-Cure evaluation from the site of infection under study.
A superinfecting pathogen at the site of infection under study is defined as a pathogen meeting all of the following criteria: represented a genus and species not isolated during the Enrollment evaluation, was cultured at any time from the day 3 of treatment to the test of cure evaluation, inclusive; was cultured from a patient who had at least one infecting pathogen; and was cultured from a patient who represents a “clinical failure.”
Microbiological response to treatment was determined for each infecting pathogen using the following classification: documented eradication, presumed eradication, documented persistence, presumed persistence, or unknown.
Microbiological response to treatment was determined for each subject using the following classification:
Microbiologic Success—all infecting pathogens isolated at baseline were eradicated or presumed eradicated at the test-of-cure evaluation and no superinfecting pathogen was isolated from the site of infection under study.
Microbiological Failure—persistence or presumed persistence of one or more infecting pathogens or isolation of a superinfecting pathogen from the site of infection under study.

[4] = tested on: Enterococcus; assay: Phase 2 CSSSI study, clinical outcome by organism: Enterococcus; assay type: in vivo; settings: ME population
Protocol: as §1, §2

[5] = tested on: Mixed GPC; assay: Phase 2 CSSSI study, clinical outcome by organism: Mixed GPC; assay type: in vivo; settings: ME population
Protocol: as §1, §2

[6] = tested on: B-Strep; assay: Phase 2 CSSSI study, clinical outcome by organism: B-Strep; assay type: in vivo, B-streptococci; settings: for Clinical outcome Failure (number) / Clinical outcome Success (number): ME population, B-Strep; for clinical success rate against B. streptococci: as determined in the trials of the Exemplification
Protocol: as §1, §2

[7] = tested on: MRSA; assay: Phase 2 CSSSI study, clinical outcome by organism: MRSA; assay type: in vivo, Staphylococcus aureus; settings: for Clinical outcome Failure (number) / Clinical outcome Success (number): ME population, MRSA; for clinical success rate against MRSA: as determined in the trials of the Exemplification
Protocol: as §1, §2

[8] = tested on: Mixed GPC/GNR; assay: Phase 2 CSSSI study, clinical outcome by organism: Mixed GPC/GNR; assay type: in vivo; settings: ME population
Protocol: as §1, §2

[9] = Phase 2 CSSSI study, safety and adverse events by patient; assay type: in vivo, human
Protocol: as §1
At each of the four structured evaluations, the blinded evaluator assessed the subject, with particular attention to scoring the findings at the primary site of infection and obtaining cultures. Clinical and microbiologic outcomes were determined using these assessments. Primary evaluation criteria was safety and tolerability compared with linezolid. Secondary evaluation criteria was efficacy of compound 1 compared to linezolid, as well as pharmacokinetics of compound 1.
In addition, the patients in the study were monitored for adverse events (AE). An adverse event is any untoward medical occurrence temporally associated with the use of a medical product in a subject, whether or not the event is considered causally related to the medical product.

[10] = probably or possibly drug-related by blinded evaluator

## CN(C)c1cc(CNCC(C)(C)C)c(O)c2c1C[C@H]1C[C@H]3[C@H](N(C)C)C(O)=C(C(N)=O)C(=O)[C@@]3(O)C(O)=C1C2=O [Compound 1, 9-[(2,2-dimethyl-propylamino)-methyl]-minocycline]
[1]
  Clinical outcome Failure (number): 1
  Clinical outcome Success (number): 3
[2]
  Premature Discontinuation (% of subjects): (4.5%)
  Premature Discontinuation (number of subjects): 5
  Premature Discontinuation due to Adverse Event (% of subjects): (0.9%)
  Premature Discontinuation due to Adverse Event (number of subjects): 1
  Premature Discontinuation due to Treatment Failure (% of subjects): (0.9%)
  Premature Discontinuation due to Treatment Failure (number of subjects): 1
[2]; listed as compound 1
  Premature Discontinuation due to Adverse Event (number of subjects): no discontinuations
[3]
  Presumed Persistence (% of subjects): 2.7%
  Presumed Persistence (number of subjects): 2
  Persistence (% of subjects): 2.7%
  Persistence (number of subjects): 2
  Presumed Eradication (% of subjects): 94.7%
  Presumed Eradication (number of subjects): 71
[4]
  Clinical outcome Failure (number): 1
  Clinical outcome Success (number): 1
[5]
  Clinical outcome Failure (number): 2
  Clinical outcome Success (number): 16
[6]
  Clinical outcome Failure (number): 0
  Clinical outcome Success (number): 6
  clinical success rate against B. streptococci: 100%
[7]
  Clinical outcome Failure (number): 0
  Clinical outcome Success (number): 42
  clinical success rate against MRSA: 100%
[7]; listed as compound 1
  Clinical outcome Failure (number): none
[8]
  Clinical outcome Failure (number): 2
  Clinical outcome Success (number): 12
[9]; 100 mg Q24 h IV with 200 mg Q24 h oral step-down
  tolerability: well tolerated
[9]; human, in vivo
  Adverse events by patient, Musculoskeletal, Drug Related: 0
  Adverse events by patient, Musculoskeletal, Total: 8
  GI events leading to discontinuation of therapy: did not result in discontinuation of therapy
[9]; observed almost entirely during oral therapy
  severity of GI events: mild
[9]; [10]
  Adverse events by patient, Cardiac, Drug Related: 0
  Adverse events by patient, Ear, Drug Related: 0
  Adverse events by patient, Eye, Drug Related: 0
  Adverse events by patient, GI, Drug Related: 12
  Adverse events by patient, General, Drug Related: 5
  Adverse events by patient, Heme, Drug Related: 0
  Adverse events by patient, Infection, Drug Related: 0
  Adverse events by patient, Injury, Drug Related: 0
  Adverse events by patient, Investigations, Drug Related: 3
  Adverse events by patient, Metabolism, Drug Related: 1
  Adverse events by patient, Neurologic, Drug Related: 4
  Adverse events by patient, Psych, Drug Related: 2
  Adverse events by patient, Renal, Drug Related: 1
  Adverse events by patient, Reproductive, Drug Related: 0
  Adverse events by patient, Respiratory, Drug Related: 0
  Adverse events by patient, Skin, Drug Related: 7
  Adverse events by patient, Vascular, Drug Related: 0
[9]; safety population
  Adverse events by patient, Cardiac, Total: 4
  Adverse events by patient, Ear, Total: 0
  Adverse events by patient, Eye, Total: 2
  Adverse events by patient, GI, Total: 21
  Adverse events by patient, General, Total: 11
  Adverse events by patient, Heme, Total: 1
  Adverse events by patient, Infection, Total: 6
  Adverse events by patient, Injury, Total: 1
  Adverse events by patient, Investigations, Total: 7
  Adverse events by patient, Metabolism, Total: 9
  Adverse events by patient, Neurologic, Total: 12
  Adverse events by patient, Psych, Total: 5
  Adverse events by patient, Renal, Total: 2
  Adverse events by patient, Reproductive, Total: 2
  Adverse events by patient, Respiratory, Total: 3
  Adverse events by patient, Skin, Total: 12
  Adverse events by patient, Vascular, Total: 3
  Patients with no adverse event (None), %: 58.6%
  Patients with no adverse event (None), number: 65
  Total Patients with 1 or more AE, %: 41.4%
  Total Patients with 1 or more AE, number: 56

## CC(=O)NCC1CN(c2ccc(N3CCOCC3)c(F)c2)C(=O)O1 (centres unmarked) [Linezolid, N-[[3-(3-fluoro-4-morpholinophenyl)-2-oxooxazolidin-5-yl]methyl]acetamide, reference compound]
[1]
  Clinical outcome Failure (number): 0
  Clinical outcome Success (number): 6
[2]
  Premature Discontinuation (% of subjects): (7.4%)
  Premature Discontinuation (number of subjects): 8
  Premature Discontinuation due to Adverse Event (% of subjects): (1.9%)
  Premature Discontinuation due to Adverse Event (number of subjects): 2
  Premature Discontinuation due to Treatment Failure (number of subjects): 0
[3]
  Presumed Persistence (% of subjects): 6.3%
  Presumed Persistence (number of subjects): 4
  Persistence (% of subjects): 1.6%
  Persistence (number of subjects): 1
  Presumed Eradication (% of subjects): 92.1%
  Presumed Eradication (number of subjects): 58
[4]
  Clinical outcome Failure (number): 0
  Clinical outcome Success (number): 3
[5]
  Clinical outcome Failure (number): 2
  Clinical outcome Success (number): 9
[6]
  Clinical outcome Failure (number): 2
  Clinical outcome Success (number): 0
  clinical success rate against B. streptococci: 0%
[7]
  Clinical outcome Failure (number): 2
  Clinical outcome Success (number): 30
  clinical success rate against MRSA: 93%
[8]
  Clinical outcome Failure (number): 0
  Clinical outcome Success (number): 10
[9]; [10]
  Adverse events by patient, Cardiac, Drug Related: 3
  Adverse events by patient, Ear, Drug Related: 1
  Adverse events by patient, Eye, Drug Related: 1
  Adverse events by patient, GI, Drug Related: 13^b
  Adverse events by patient, General, Drug Related: 4
  Adverse events by patient, Heme, Drug Related: 0
  Adverse events by patient, Infection, Drug Related: 1
  Adverse events by patient, Injury, Drug Related: 1
  Adverse events by patient, Investigations, Drug Related: 8
  Adverse events by patient, Metabolism, Drug Related: 2
  Adverse events by patient, Musculoskeletal, Drug Related: 0
  Adverse events by patient, Neurologic, Drug Related: 7
  Adverse events by patient, Psych, Drug Related: 3
  Adverse events by patient, Renal, Drug Related: 0
  Adverse events by patient, Reproductive, Drug Related: 0
  Adverse events by patient, Respiratory, Drug Related: 0
  Adverse events by patient, Skin, Drug Related: 6^c
  Adverse events by patient, Vascular, Drug Related: 1
[9]; probably or possibly drug-related by blinded evaluator, listed as linezolid
  Adverse events by patient, GI, Drug Related: 13
[9]; safety population
  Adverse events by patient, Cardiac, Total: 4
  Adverse events by patient, Ear, Total: 2
  Adverse events by patient, Eye, Total: 1
  Adverse events by patient, GI, Total: 21
  Adverse events by patient, General, Total: 8
  Adverse events by patient, Heme, Total: 2
  Adverse events by patient, Infection, Total: 9
  Adverse events by patient, Injury, Total: 1
  Adverse events by patient, Investigations, Total: 11
  Adverse events by patient, Metabolism, Total: 7
  Adverse events by patient, Musculoskeletal, Total: 2
  Adverse events by patient, Neurologic, Total: 15
  Adverse events by patient, Psych, Total: 6
  Adverse events by patient, Renal, Total: 2
  Adverse events by patient, Reproductive, Total: 1
  Adverse events by patient, Respiratory, Total: 2
  Adverse events by patient, Skin, Total: 10
  Adverse events by patient, Vascular, Total: 1
  Patients with no adverse event (None), %: 49.1%
  Patients with no adverse event (None), number: 53
  Total Patients with 1 or more AE, %: 50.9%
  Total Patients with 1 or more AE, number: 55
